Series [1] deals with T1, human recombinant glucokinase (Homo sapiens, UniProt P35557).
T1 sequence (P35557 1-465): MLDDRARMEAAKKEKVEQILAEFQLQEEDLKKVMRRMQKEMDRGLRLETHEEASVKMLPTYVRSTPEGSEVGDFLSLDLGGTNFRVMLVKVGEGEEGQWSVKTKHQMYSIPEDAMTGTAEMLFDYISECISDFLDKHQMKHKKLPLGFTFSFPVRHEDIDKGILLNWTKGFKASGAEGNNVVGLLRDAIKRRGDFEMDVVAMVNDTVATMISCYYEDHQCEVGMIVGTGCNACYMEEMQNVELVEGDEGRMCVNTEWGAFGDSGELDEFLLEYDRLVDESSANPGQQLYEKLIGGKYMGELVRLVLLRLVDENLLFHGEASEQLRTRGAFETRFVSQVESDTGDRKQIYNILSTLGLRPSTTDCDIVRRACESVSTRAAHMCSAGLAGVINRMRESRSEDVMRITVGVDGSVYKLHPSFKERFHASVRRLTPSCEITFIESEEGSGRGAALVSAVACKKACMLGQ
In words: Glucokinase activation, coupled enzymatic assay (G6PD/NADH) at 5 mM glucose. It counts as biochemical. The settings on record: read-out: EC50 for GK activation at 5 mM glucose. From the text: (§1) Glucokinase (GK) activity, in vitro, has been measured using a coupled enzymatic assay (Ref: Hariharan et al (1997) Diabetes 46: 11-16). GK catalyzes the first step, the conversion of glucose to glucose-6-phosphate (G6P) in the presence of ATP. G6P in turn is converted by glucose-6-phosphate dehydrogenase (G6PD) to 6-phosphogluconate, a process that requires NAD, resulting in NADH formation. Since the GK-catalyzed step is the rate-limiting step of this coupled enzymatic process, the rate of accumulation of 6-phosphogluconate and NADH is directly proportional to the rate of glucose phosphorylation by GK. The rate of the GK-catalyzed reaction can therefore be measured by monitoring the increase in NADH absorbance at 340 nm.
(§2) The assay is carried out according to the protocol outlined in Hariharan et al (1997), Diabetes 46: 11-16. Briefly, the test compounds are incubated in a reaction mix containing 25 mM HEPES (pH 7.2), 10 mM MgCl2, 100 mM KCl, 5 mM ATP, 2 mM DTT, 0.5 mM NAD, 1 U/ml Leuconostoc mesenteroides G6PD, 0.3 U/ml of purified human recombinant GK, and different concentrations of glucose. Enzymatic activity is calculated from the initial reaction velocity, measured from the change in NADH absorbance as a function of time.
Compounds described in formula (I), in concentration ranges from 1.0 nM to 500 μM, are tested in the purified human recombinant glucokinase assay described above.
A compound is considered to be a glucokinase activator if it, in its testable range of concentrations, yields a higher rate of glucose phosphorylation than in its absence at a particular glucose concentration, for example at 5 mM glucose.

Series [2] deals with T1, human recombinant glucokinase. In words: Characterization of partial glucokinase activators: dose-dependent effect on S0.5 of glucokinase for glucose (% ΔS0.5). The settings on record: for Emax: % change of S0.5 at saturating compound concentration, read-out: % Emax (with respect to % ΔS0.5); for EC50: sigmoidal fit of % ΔS0.5 vs log compound concentration, read-out: EC50 (with respect to % ΔS0.5). It counts as biochemical.
Source text: as §1, §2
Compounds of interest from the general formula (I) are tested in the in vitro GK enzymatic assay to monitor dose-dependent effect on glucokinase activation (in kinetic mode), as described above, at various glucose concentrations. The maximum efficacy (Emax) and potency (EC50) for the assessment of partial glucokinase activation have been defined in our co-pending application 409/CHE/2007. The same definitions have also been used here. The S0.5 of glucokinase for glucose at different concentration of each compound of interest is calculated from the following modified version of the Michaelis-Menten equation, V=Vmax[S]^n/(S0.5^n+[S]^n), where [S] is the glucose concentration and n is the Hill coefficient (taken as 1.7 to account for the sigmoidal kinetics of glucokinase with respect to glucose). The S0.5 is plotted against the log of the compound concentration. The change in the S0.5 of glucokinase (ΔS0.5) for glucose is calculated by subtracting the S0.5 at each concentration of the compound from the S0.5 in the vehicle control. The ΔS0.5 is then normalized to a percent scale, where the S0.5 in the vehicle control is set to 0% and 0 mM glucose is set to 100%. The % ΔS0.5 is then plotted against the log of the compound concentration. The EC50 of % change in S0.5 is obtained from the sigmoidal fit of the data.

The conditions of series [3]: cited from earlier work.

A word on the EC50: it is the midpoint of the concentration-response curve. Regarding `CS(=O)(=O)c1ccc(Cc2cc(C(=O)Nc3nc(CC(=O)O)c(Cl)s3)n(Cc3ccc(F)c(F)c3)c2)cc1` [Example E23, (5-Chloro-2-{[1-(3,4-difluoro-benzyl)-4-(4-methanesulfonyl-benzyl)-1H-pyrrole-2-carbonyl]-amino}-thiazol-4-yl)-acetic acid], the EC50 in series [1] stood at 300 nM.
Still for that read-out and setting: the value for `CC(C)C(O)c1cc(C(=O)Nc2ncc(F)s2)n(Cc2ccc(S(C)(=O)=O)cc2)c1` (stereo not shown) [Example C8, 4-(1-Hydroxy-2-methyl-propyl)-1-(4-methanesulfonyl-benzyl)-1H-pyrrole-2-carboxylic acid (5-fluoro-thiazol-2-yl)-amide] was 430 nM.
Broadly, the Emax is the greatest response seen or fitted, relative to the assay's reference. As for `CC(C)Cc1cc(C(=O)Nc2ncc(Cl)s2)n(Cc2ccc(F)c(C(F)(F)F)c2)c1` [Example A31, 1-(4-Fluoro-3-trifluoromethyl-benzyl)-4-isobutyl-1H-pyrrole-2-carboxylic acid (5-chloro-thiazol-2-yl)-amide], in series [2], the Emax turned out to be 40% and the EC50 is 220 nM.
Take `CC(C)C(O)c1cc(C(=O)Nc2ncc(Cl)s2)n(Cc2ccc(F)c(F)c2)c1` (stereo not shown) [Example C2, 1-(3,4-Difluoro-benzyl)-4-(1-hydroxy-2-methyl-propyl)-1H-pyrrole-2-carboxylic acid (5-chloro-thiazol-2-yl)-amide]: the EC50 in series [1] is 630 nM.
Consider `CC(C)Cc1cc(C(=O)Nc2ncc(Cl)s2)n(Cc2ccc(F)c(F)c2)c1` [Example A40, 1-(3,4-Difluoro-benzyl)-4-isobutyl-1H-pyrrole-2-carboxylic acid (5-chloro-thiazol-2-yl)-amide], for which, in series [2], the Emax is 65% and the EC50 turned out to be 200 nM.
In the case of Ro-28-1675 [reference compound], the “S0.5 of glucokinase for glucose in presence of activator” value in series [2] (drop from approximate 8 mM glucose, enzyme-based in vitro assay) is recorded as no more than 1.0 mM. Besides, in series [3] (Kamata et al 2004), the “hypoglycemia in animal efficacy models” value is on record as “cause hypoglycemia”.
For `O=C(Nc1ncc(F)s1)[C@H](CC1CCOCC1)c1ccc(S(=O)(=O)C2CC2)cc1` [PSN-GK1], the hypoglycemic potential result in series [3] (at higher dose, Fyfe 2007) is “hypoglycemic potential”.
Take `CC(C)C(O)c1cc(C(=O)Nc2nccs2)n(Cc2ccc(S(C)(=O)=O)cc2)c1` (stereo not shown) [Example C6, 4-(1-Hydroxy-2-methyl-propyl)-1-(4-methanesulfonyl-benzyl)-1H-pyrrole-2-carboxylic acid thiazol-2-ylamide]: in series [1], the EC50 came out at 600 nM.
Regarding `CCOC(=O)Cc1nc(NC(=O)c2cc(CC(C)C)cn2Cc2ccc(F)c(F)c2)sc1Cl` [Example A116, (5-Chloro-2-{[1-(3,4-difluoro-benzyl)-4-isobutyl-1H-pyrrole-2-carbonyl]-amino}-thiazol-4-yl)-acetic acid ethyl ester], in series [2], the Emax was 70% and the EC50 amounted to 300 nM.

The values above are taken from patent US8299115B2, “Pyrrole-2-carboxamide derivatives as glucokinase activators, their process and pharmaceutical application” (priority 2007, dated 2012).
